Results reported in patent publication US12006530B2, “Streptococcal proteases” (priority 2016, dated 2024).
“Also recorded” adds a separate entry of the source. Peptide text beside a SMILES is read from it. * marks the point of attachment. Cbz = O=C(OCc1ccccc1)*; CHN2 = [N-]=[N+]=C*

Key:
[1] = tested on: IgG degradation activity in culture supernatant of S. suis strain 10; experiment: Inhibitor profile of IgG degradation activity in S. suis culture supernatant, anti-IgG Western blot; type: biochemical, Streptococcus suis; conditions: for IgG cleavage product in presence of inhibitor: concentrated (10×) supernatant of strain 10, porcine plasma; for IgG cleaving activity in the presence of class specific protease inhibitors: protease enriched ammonium sulfate precipitates of S. suis culture supernatant, porcine plasma
Experimental: Concentrated (10×) culture supernatant of S. suis strain 10 was incubated with porcine plasma in presence of class specific protease inhibitors. The reaction was analyzed by anti-IgG western blot under reducing conditions.
To monitor IgG cleavage activity in concentrated and fractionated culture supernatants, samples were incubated with 1% porcine plasma in PBS for 16 h at 37° C. prior to Western blot analyses.
To identify the catalytic type of the IgG protease, the IgG degradation reaction was performed in the presence of 0.1-5 mM AEBSF (Sigma), 0.1-5 mM EDTA, 50-250 μM E-64 (Sigma), 0.1-5 mM Z-LVG-CHN2 (Bachem), 0.1-5 mM Iodoacetamide (Sigma) or 1/200 to 1/50 dilution of complete protease inhibitor cocktail (Roche).
(§1) Samples for SDS-PAGE were prepared with either reducing or non-reducing sample buffer and heated to 95° C. for 5 min. 12% SDS-PAGE was either stained with Coomassie blue (Sigma), Coomassie Fluor™ Orange Protein Gel Stain (Invitrogen) or blotted to Hybond-P PVDF membrane (GE Healthcare) for western blot analyses. Membranes were blocked with 5% dry milk powder in 0.1% PBS-Tween, followed by incubation with horse-radish peroxidase conjugated antibodies. Goat anti-pig IgG-HRP (Thermo Scientific) and goat anti-porcine IgM-HRP (Thermo Scientific) was diluted 1:25′000 and goat anti-porcine IgA-HRP (Thermo Scientific) was diluted 1:12′500. Membranes were thoroughly washed with 0.1% PBS-Tween prior to development with Amersham ECL Select Western blotting detection reagent (GE Healthcare) according to manufactures instruction and pictured by LAS4000 imaging system (Fujifilm).

S. suis IgdE^ΔC = experiment: Inhibitor profile of purified recombinant IgdE^ΔC, quantitative IgG degradation analysis; type: biochemical, Streptococcus suis; conditions: porcine IgG
Experimental: The time course of cleavage (A) was monitored by continuous sampling prior to Coomassie fluor orange stained SDS-PAGE under reducing conditions followed by densitometric quantification of the cleavage product. 1.67 μM porcine IgG was incubated with 0.2 μM purified rIgdE^ac. Overnight cleavage (16 h) was set as 100% relative cleavage. For the inhibitor profile (B) initial cleavage in presence of 250 μM and 2.5 μM of each inhibitor was monitored. Initial cleavage activity of the uninhibited control was set as 100% relative activity. The DMSO control correlates to 250 μM Z-LVG-CHN2. Data are presented as mean±SEM of three experiments. Differences to the uninhibited control (*) or DMSO control (□) were analyzed by Dunnett's Multiple Comparison Test with significance set at P values of <0.05(*), <0.01(**) and <0.001(*** or □□□).
For time course analyses and inhibitor profiles the IgG degradation reaction was performed with 0.25 mg/ml porcine IgG and 2 μM purified IgdE^ΔC at 37° C. in PBS uninhibited or in the presence of 2.5 μM or […] AEBSF (Sigma), EDTA, E-64 (Sigma), lodoacetamide (Sigma), or Z-LVG-CHN2 (Bachem). DMSO (Sigma) at 0.275%, corresponding to the DMSO content in 250 µM Z-LVG-CHN2, was used as a solvent control. The reactions were continuously sampled and subjected to SDS-PAGE under reducing conditions. Protein bands were detected by staining with Coomassie Fluor™ Orange Protein Gel Stain (Invitrogen). The IgG degradation product was densitometrical quantified by imaging with LAS4000 imaging system (Fujifilm) and analyzed with Image Studio Version 3.1 (LI-COR Biosciences) software. Uninhibited over-night cleavage was set as 100% relative cleavage for the time course experiment. For the inhibitor profile the initial cleavage rate was calculated from the initial increase of cleavage product (0-25% relative cleavage) and the initial cleavage rate of the uninhibited reaction was set as 100% relative activity. Experiments were at least performed in triplicates. Statistical analyses were performed using GraphPad Prism Version 5.0.

IgG = IgG degrading cysteine protease activity: specificity as summarised; type: biochemical; conditions: summary statement
Excerpt: Typically, polypeptides for use in accordance with the invention display immunoglobulin cysteine protease activity, and in particular IgG degrading cysteine protease activity. Preferably, the polypeptide cleaves IgG in the hinge region and more particularly in the hinge region of the heavy chain. Preferably, cleavage results in production of Fc and Fab fragments of IgG. Preferably the activity is specific for IgG. The IgG degrading cysteine protease activity may be determined by means of a suitable assay. For example, a test polypeptide may be incubated with IgG at a suitable temperature, such as 37° C. The starting materials and the reaction products may then be analysed by SDS PAGE to determine whether the desired IgG cleavage product is present. Typically this cleavage product is a 32 kDa fragment. Typically there is no further degradation of IgG after this first cleavage. The cleavage product may be subjected to N-terminal sequencing to verify that cleavage has occurred in the hinge region of IgG.
The IgG degrading cysteine protease activity of the polypeptides is generally IgG-specific in that the polypeptides may not degrade other classes of Ig, namely IgM, and IgA, when incubated with these immunoglobulins under conditions that permit cleavage of IgG.

human IgG = experiment: IgG cleavage by IgdE, SDS-PAGE; type: biochemical; conditions: purified polyclonal IgG, reducing SDS-PAGE
Experimental: (§2) (A) rIgdEagalactiae was incubated with polyclonal IgG of six different species for 18 h at 37° C. and analyzed by SDS-PAGE under reducing conditions. Degradation products are indicated by asterisks (*). Images of different gels have been used to create the figure. (B) rIgdEagalactiae was incubated with human or bovine serum for 18 h in 37° C. and analyzed by SDS-PAGE under reducing conditions. Degradation products are indicated by asterisks (*). (C) Western Blot with crude extracts of rIgdEagalactiae incubated with human and porcine serum for 18 h in 37° C. Membrane was treated with antibodies against human and porcine polyclonal IgG respectively. Degradation products are indicated by asterisks (*). (D) rIgdEagalactiae was incubated with subclasses of human IgG as well as human IgA and IgM for 18 h in 37° C. and analyzed by SDS-PAGE under reducing conditions. Degradation products are indicated by asterisks (*). Images of different gels have been used to create the figure.
(§3) 0.5 mg/ml of porcine IgG (Sigma) in PBS or of other species (human, goat, cow, horse and mouse; all Sigma) were incubated with either crude extracts of induced E. coli carrying S. suis IgdE constructs mentioned above or 10 nM purified rIgdE for 16 h at 37° C. prior subjection to SDS-PAGE under either reducing or non-reducing conditions.
as §1

porcine IgG [2] = experiment: IgG cleavage by IgdE, SDS-PAGE; type: biochemical, pig; conditions: purified polyclonal IgG, reducing SDS-PAGE
Experimental: (A) Schematic illustration of IgdE and the different rIgdE constructs with potential active site residues substitutions and the C-terminal truncation variant. The secretion signal peptide (residues 1-37) is marked in light grey, the transglutaminase domain is boxed and the potential active site residues and substitutions are indicated. (B) 3.3 μM porcine IgG was incubated for 16 h at 37° C. with soluble fractions of E. coli cells expressing different rIgdE constructs. The reaction was analyzed SDS-PAGE under reducing conditions. […] The weak protein band of 37 kDa is a contaminant present in lysate preparation and not related to IgdE activity.
as §3, §1

porcine IgG [3] = experiment: Ig cleavage in porcine plasma or serum, anti-IgG Western blot; type: biochemical, pig
Experimental: (A) 2% porcine plasma was incubated with (+) or without (−) 10 nM purified rIgdE.
The reaction was analyzed by anti-porcine IgG, IgM and IgA Western blots under reducing conditions. Only cleavage of IgG was observed (*). (B) 0.5 mg/ml IgG of different species was incubated with (+) or without (−) 10 nM purified rIgdE and analyzed by SDS-PAGE under reducing conditions. No cleavage of IgG derived from any other species than pig (*) was observed. The weak protein band of 37 kDa is a contaminant present in lysate preparation (see lane 2) and not related to IgdE activity. Images of different gels have been assembled into one figure.
as §1, with “Membranes were thoroughly washed with 0.1% PBS-Tween prior to development with Amersham ECL Select Western blotting detection reagent (GE Healthcare) according to manufactures instruction and pictured by LAS4000 imaging system (Fujifilm).” left out

IgG in human serum = experiment: Ig cleavage in human serum, anti-IgG Western blot; type: biochemical
Experimental: as §2

cow IgG = experiment: IgG cleavage by IgdE, SDS-PAGE; type: biochemical; conditions: purified polyclonal IgG, reducing SDS-PAGE
Experimental: as §3, §1

mouse IgG = experiment: IgG cleavage by IgdE, SDS-PAGE; type: biochemical; conditions: purified polyclonal IgG, reducing SDS-PAGE
Experimental: as §3, §1

horse IgG = experiment: IgG cleavage by IgdE, SDS-PAGE; type: biochemical; conditions: purified polyclonal IgG, reducing SDS-PAGE
Experimental: as §3, §1

goat IgG = experiment: IgG cleavage by IgdE, SDS-PAGE; type: biochemical; conditions: purified polyclonal IgG, reducing SDS-PAGE
Experimental: as §3, §1

rat IgG = experiment: IgG cleavage by IgdE, SDS-PAGE; type: biochemical; conditions: purified polyclonal IgG
[4] = purified recombinant IgdE^ΔC, inhibitor at 250 μM and 2.5 μM per FIG. 3

For `CC(C)CC(NC(=O)OCc1ccccc1)C(=O)NC(C(=O)NCC(=O)C=[N+]=[N-])C(C)C` (stereo not drawn) [Z-LVG-CHN2] (Cbz-Leu-Val-Gly-CHN2; configuration not given here), the “IgG cleavage product in presence of inhibitor” value ([1]; inhibitor 0.1-5 mM) was “no degradation product was observed”, the “IgG cleaving activity in the presence of class specific protease inhibitors” value [1] was “appeared to inhibit IgG degrading activity” and the “IgG proteolytic activity of purified IgdE^ΔC in presence of inhibitor” value (S. suis IgdE^ΔC; 125 fold molar excess of inhibitor, 37° C., up to 18 h) was “no cleavage product at all could be detected; also recorded: completely inhibited”.

`O=C(O)CN(CCN(CC(=O)O)CC(=O)O)CC(=O)O` [EDTA] was tested, and the “IgG cleavage product in presence of inhibitor” value ([1]; inhibitor 0.1-5 mM) was “A cleavage product of IgG can be observed”, the “IgG cleaving activity in the presence of class specific protease inhibitors” value [1] was “did not affect IgG cleavage” and the “IgG proteolytic activity of purified IgdE^ΔC in presence of inhibitor” value (S. suis IgdE^ΔC; [4]) was “fully active”.

With `CC(C)C[C@H](NC(=O)[C@H]1O[C@@H]1C(=O)O)C(=O)NCCCCN=C(N)N` [E-64] the “IgG cleavage activity of S. suis culture supernatants in presence of inhibitor” value ([1]; at very high concentrations) was “interfered with IgG cleavage activity”, the “IgG cleavage product in presence of inhibitor” value ([1]; inhibitor 50 μM) was “A cleavage product of IgG can be observed” and the “IgG cleavage product in presence of inhibitor” value ([1]; inhibitor 250 μM) was “no degradation product was observed”. The “IgG cleaving activity in the presence of class specific protease inhibitors” value [1] was “appeared to inhibit IgG degrading activity” and the “IgG proteolytic activity of purified IgdE^ΔC in presence of inhibitor” value (S. suis IgdE^ΔC; [4]) was “did not inhibit”.

B1: IgdEpseudoporcinus: IgdE isolated from S. pseudoporcinus strain ATCC BAA-1381, SEQ ID NO: 9 (protein, listed as Streptococcus pseudoporcinus)
chain: RENENVRQLQSENKQMKAVNLQEFSEKLKGEIAENQQFHIFKLGLNNYYIGGVRINELSDLAKNHDFIMIDNRATHNKYGVPHIIIMNKDDVIVHNQEDYNKEMAELTFAGDKPIQSDSYLPQKKRIHALFEIGLDSNRRQLLNAAGLKTPENSVIELDTFKIYSHGLAVDNKYYDEYSHFNNNTNVNITKQRFTENDNLIHNLITTSTAKDQPTDRDKVKTFVMYVANHTIYDWNAANNAVSNISDVNYYLGSDLFSITERKKAMCVGFSTTAARAFNMLGIPAYVVEGKNAQGVDHATARVYYNGKWHTIDGTGFINGNRTRSTLYTESHFRSVGEDSYQLVGLNEDIPFDRNYMKIDKVYEEWAPKQKTADLLLVNKDKSLVGLDRVAYVEPVYVDKNRQDALTQIYKKLKETMESSSKKNPSSGGFSSLLGSASSDIAKLEGSSQLTQEEYDKIHRSMTSILTFFAQLDKDAAEAFEKGNDYKNYLATTKHAQ
B1 was tested, and the “immunoglobulin specificity of the IgG degrading cysteine protease activity” value (IgG) was “specific for porcine IgG”, the “cleavage of polyclonal human IgG (32 kDa degradation product)” value (human IgG) was “cleaved” and the “cleavage of polyclonal porcine IgG (32 kDa degradation product)” value (porcine IgG [2]) was “cleaved”. The “cleavage of IgG in porcine plasma or serum” value (porcine IgG [3]) was “cleaved IgG in human and porcine serum”, the “cleavage of IgG in human serum” value (IgG in human serum) was “cleaved IgG in human and porcine serum” and the “cleavage of polyclonal cow IgG” value (cow IgG) was “No degradation product was observed”. For the same molecule, the “cleavage of polyclonal mouse IgG” value (mouse IgG) was “No degradation product was observed”, the “cleavage of polyclonal horse IgG” value (horse IgG) was “No degradation product was observed” and the “cleavage of polyclonal goat IgG” value (goat IgG) was “No degradation product was observed”. For the same molecule, the “cleavage of polyclonal rat IgG” value (rat IgG) was “No degradation product was observed”.
